# Tests used:
# Experiment in all cases: 3' UTR reporter interaction score (median-centred robust z-score of log2 firefly/Renilla activity); higher = less repression of the 3' UTR reporter
# Conditions in all cases: HEK293T; 48 h
# MYB = tested on: MYB
# Procedure, shortened: (§1)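 A firefly luc2P reporter carrying the gene's 3' UTR (100 ng), Renilla pRL-TK control (20 ng) and miRNA mimic (2.5 pmol) were co-transfected with DharmaFECT Duo into HEK293T cells plated at 10,000/well in 96-well plates. Luciferase activities were read 48 h post-transfection. The interaction score is the log firefly/Renilla ratio as a per-plate robust z-score from median and median absolute deviation, median-centred per miRNA, and more negative indicates interaction. Values are averages of at least two independent screens.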
# EZH2 = tested on: EZH2
# Procedure, shortened: as §1
# PHOX2B = tested on: PHOX2B
# Procedure, shortened: as §1
# MYC = tested on: MYC
# Procedure, shortened: as §1
# PHF6 = tested on: PHF6
# Procedure, shortened: as §1
# BRCA2 = tested on: BRCA2
# Procedure, shortened: as §1
# HRAS = tested on: HRAS
# Procedure, shortened: as §1
# NOTCH1 = tested on: NOTCH1
# Procedure, shortened: as §1
# MYT1L = tested on: MYT1L
# Procedure, shortened: as §1
# MYCN = tested on: MYCN
# Procedure, shortened: as §1
# TP53 = tested on: TP53
# Procedure, shortened: as §1
# ZEB2 = tested on: ZEB2
# Procedure, shortened: as §1
# FBXW7 = tested on: FBXW7
# Procedure, shortened: as §1
# RB1 = tested on: RB1
# Procedure, shortened: as §1
Sequence,3' UTR reporter interaction score (MYB),3' UTR reporter interaction score (EZH2),3' UTR reporter interaction score (PHOX2B),3' UTR reporter interaction score (MYC),3' UTR reporter interaction score (PHF6),3' UTR reporter interaction score (BRCA2),3' UTR reporter interaction score (HRAS),3' UTR reporter interaction score (NOTCH1),3' UTR reporter interaction score (MYT1L),3' UTR reporter interaction score (MYCN),3' UTR reporter interaction score (TP53),3' UTR reporter interaction score (ZEB2),3' UTR reporter interaction score (FBXW7),3' UTR reporter interaction score (RB1)
UACCCUGUAGAACCGAAUUUGU,0.245,1.07,-0.86,0.546,0.333,0.189,0.849,-1.66,-2.07,-0.116,-0.546,-1.8,-0.174,-0.148
UACCCUGUAGAUCCGAAUUUGUG,0.0301,1.17,-1.36,0.449,-0.356,0.0748,1.04,-2.62,-2.08,-0.296,-0.88,-1.18,-0.445,0.397
UACUGCAUCAGGAACUGAUUGGAU,-0.822,-1.49,0.00207,0.358,-2.18,-0.471,0.0273,0.0506,1.06,0.685,-0.963,-0.414,0.0205,1.24
UAGAUAAAAUAUUGGUACCUG,-0.19,0.412,-1.45,0.271,-0.242,0.0137,0.836,-0.186,-0.105,0.037,0.578,-0.296,0.354,-0.00826
UAGCACCAUCUGAAAUCGGUU,0.702,0.717,-0.351,0.338,-0.0911,0.502,0.469,0.229,-0.146,-3.08,-0.0665,-0.458,-3.02,-0.626
UAGCACCAUUUGAAAUCAGUGUU,0.253,0.729,-1.1,0.295,0.425,0.947,-0.0949,0.166,0.287,-3.52,-0.394,0.0122,-3.34,-0.25
UAGCACCAUUUGAAAUCGGU,0.262,0.53,-0.0846,0.499,-0.281,0.875,0.156,0.946,-0.0531,-3.2,-0.108,-0.664,-2.01,-0.0587
UAGCAGCACAGAAAUAUUGGC,-2.7,-0.914,0.776,-0.447,1.22,-0.194,-1.27,-0.212,-1.5,-0.51,0.439,2.12,-1.49,0.887
UAGCAGCACAUCAUGGUUUACA,-1.34,-0.225,0.488,0.39,0.453,-0.138,-0.34,-0.541,-3.09,0.0626,-0.579,2.82,-2.93,0.792
